Reference: patent publication EP0488224A2, “Fermentationproduct of a Verticimonosporium strain and feed additivs containing a linear peptide” (MITSUBISHI KASEI CORPORATION, priority 1990, dated 1992)
Where two headings read alike, the source gives them in different places.

Columns and labels:
Caenorhabditis elegans = experiment: Anti-nematode activity (1): growth and motility of nematodes in suspension; assay type: cell-based; set-up: key: 5 scales, - ±, +, ++ and +++; 5 scales, - ±, +, ++ and +++; 5 scales, - ±, +, ++ and +++; 5 scales, - ±, +, ++ and +++; 5 scales, - ±, +, ++ and +++; conditions: 12.5 ppm, 20 °C, one week
Procedure: Anti-nematode activity of substance MBA090-18 was evaluated using Caenorhabditis elegans, a soil […] nematode.
Caenorhabditis elegans was suspended into sterilized water at the density of 20 - 30 heads/100 µl. To the suspension was added substance MBA090-18 at the concentration of 12.5 ppm. The mixture was incubated at 20 °C for one week while the growth and motility of nematodes being observed. […] The anti-nematode activity was evaluated and expressed according to the following 5 scales, - ±, +, ++ and +++.

[1] = value from a literature; cited from earlier work
rumen fermentation = experiment: Effect on feed efficiency in vivo (rumen content of a goat given feed additive); conditions: 80 mg/day in feed, percentage to control (100)
Procedure: The effect of linear peptide compounds on the feed effeciency was evaluated in vivo using a ruminant animal.
A goat (a native species of Japan, 25 Kg) equipped with rumen fistula was used. As a feed additive, either of linear peptide compounds, MBA090-18 and gramicidin D, was administered to the animal. The rumen content was collected through the fistula and subjected to the assay in the same manner as described in the above Experiment 4 to obtain the total amount of VFAs, the production ratio of propionic acid to acetic acid (PA/AA) and the number of survival protozoas. In the table, values are shown as the percentage to the control values (100) obtained by keeping animal with the same feed ration to which neither of test compounds has been added.

rumen bacterial solution = experiment: Effect on digestion of cellulose by rumen bacterial solution; set-up: species or system goat; conditions: 5 µg/ml, 37 °C, 3 days; 0 µg/ml control 72
Procedure: The effect of substance MBA090-18 on the digestion of cellulose in the rumen was evaluated.
A goat (a native species of Japan, 20 Kg) equipped with rumen fistula was again used. A preparation of rumen bacterial solution was prepared by collecting the rumen content through the fistula, followed by a prompt centrifugation at 3000 rpm for 10 min to remove feed debris and protozoa.
To the 10 ml of the bacterial solution was added 50 ml of a basal medium described in the above Experiment 3 except that 0.4 g of cellulose powder and 6 mg of vitamin mixture are supplemented. The flask is then sealed anaerobically under CO₂ gas and incubated at 37 °C for 3 days. When the incubation finished, the cultured broth was assayed about the digestion of cellulose.

[2] = Acute toxicity on oral administration; assay type: in vivo; conditions: five male mouse
Procedure: The acute toxicity of substance MBA090-18 was determined using five male mouse on oral administration.

| Molecule | Antinematode Activity growth (Caenorhabditis elegans) | Antinematode Activity mobility (Caenorhabditis elegans) | acute toxicity [2] | other results |
| --- | --- | --- | --- | --- |
| Avermectin | +++ | +++ |  | acute toxicity [1]: 35 mg/kg |
| Gramicidin D |  |  |  | total VFAs (%) (rumen fermentation): 103%; PA/AA (%) (rumen fermentation; propionic acid to acetic acid): 125%; Protozoa (%) (rumen fermentation; surviving protozoa): 86% |
| Monensin |  |  | 43.8 mg/kg | Digestion Rate of Cellulose (%) (rumen bacterial solution): 10% |
| CN[C@H]1C[C@@H](N)[C@H](O)[C@@H](O[C@@H]2O[C@H](CO)[C@H](O)[C@@H]3OC4(O[C@H]23)O[C@H]([C@@H](N)CO)[C@H](O)[C@H](O)[C@H]4O)[C@@H]1O (some centres unmarked) [Hygromycin B] | ++ | ± |  |  |
| CC[C@@H](C(=O)[C@@H](C)[C@@H](O)[C@H](C)[C@@H]1O[C@@H]([C@@H](CC)C(=O)O)CC[C@@H]1C)[C@H]1O[C@]2(C=C[C@@H](O)[C@]3(CC[C@@](C)([C@H]4CC[C@](O)(CC)[C@H](C)O4)O3)O2)[C@H](C)C[C@@H]1C [Salinomysin] |  |  | 50 mg/kg |  |
